Experimental data taken from patent US20140120232A1, “ACID TASTE/ACID SMELL-REDUCING AGENT” (T. HASEGAWA CO., LTD., priority 2011, published 2014).

Assay: Sensory evaluation of Vermont drink containing the agent
Conditions: ten panels
Description: Water was added to a mixture of 10 g of apple-cider vinegar (acetic acid: 4.8%), 3 g of honey, 7 g of fructose-glucose liquid sugar mixed with sugar, 0.02 g of citric acid, 0.002 g of trisodium citrate, and 0.1 g of a Vermont flavor (manufactured by T. Hasegawa Co., Ltd.) to give a total amount of 100 mL. To the resulting mixture was added (Z,Z)-4,7-tridecadienal as the acid taste and/or acid smell-reducing agent of the present invention in concentrations shown in the following Table 1 to give Vermont drinks containing the agent.
Sensory evaluation of each drink was carried out by ten panels. […] The piercing aroma characteristic to aldehydes is a characteristic aroma common to every aldehyde and refers to an irritant off-smell giving an image of deteriorated oils and fats, soap, metals, Houttuynia cordata, etc. The judgment of smell was performed by comparing the effects at different concentrations of the acid taste and/or acid smell-reducing agent, and a concentration giving the highest acid taste/acid smell quality was selected. […]

CCCCC/C=C\C/C=C/CCC=O [(E,Z)-4,7-tridecadienal]
A: number of panels, acid taste/acid smell extreme and cause irritation (0.005 ppt): 10 | B: number of panels, acid taste/acid smell slightly strong and slightly cause irritation (0.005 ppt): 0 | C: number of panels, acid taste/acid smell slightly unpleasant (0.005 ppt): 0 | Flavor judgment: number of panels who judged acid taste/acid smell quality the highest (0.005 ppt): 0 | N: number of panels, irritation of acid reduced to give a mild acid taste (0.005 ppt): 0 | X: number of panels, acid taste reduced but piercing odor characteristic to aldehydes unpleasant (0.005 ppt): 0 | A: number of panels, acid taste/acid smell extreme and cause irritation (0.02 ppt): 10 | B: number of panels, acid taste/acid smell slightly strong and slightly cause irritation (0.02 ppt): 0 | C: number of panels, acid taste/acid smell slightly unpleasant (0.02 ppt): 0 | Flavor judgment: number of panels who judged acid taste/acid smell quality the highest (0.02 ppt): 0 | N: number of panels, irritation of acid reduced to give a mild acid taste (0.02 ppt): 0 | X: number of panels, acid taste reduced but piercing odor characteristic to aldehydes unpleasant (0.02 ppt): 0 | A: number of panels, acid taste/acid smell extreme and cause irritation (0.1 ppt): 10 | B: number of panels, acid taste/acid smell slightly strong and slightly cause irritation (0.1 ppt): 0 | C: number of panels, acid taste/acid smell slightly unpleasant (0.1 ppt): 0 | Flavor judgment: number of panels who judged acid taste/acid smell quality the highest (0.1 ppt): 0 | N: number of panels, irritation of acid reduced to give a mild acid taste (0.1 ppt): 0 | X: number of panels, acid taste reduced but piercing odor characteristic to aldehydes unpleasant (0.1 ppt): 0 | A: number of panels, acid taste/acid smell extreme and cause irritation (0.2 ppt): 8 | B: number of panels, acid taste/acid smell slightly strong and slightly cause irritation (0.2 ppt): 2 | C: number of panels, acid taste/acid smell slightly unpleasant (0.2 ppt): 0 | Flavor judgment: number of panels who judged acid taste/acid smell quality the highest (0.2 ppt): 0 | N: number of panels, irritation of acid reduced to give a mild acid taste (0.2 ppt): 0 | X: number of panels, acid taste reduced but piercing odor characteristic to aldehydes unpleasant (0.2 ppt): 0 | A: number of panels, acid taste/acid smell extreme and cause irritation (0.5 ppt): 6 | B: number of panels, acid taste/acid smell slightly strong and slightly cause irritation (0.5 ppt): 3 | C: number of panels, acid taste/acid smell slightly unpleasant (0.5 ppt): 1 | Flavor judgment: number of panels who judged acid taste/acid smell quality the highest (0.5 ppt): 0 | N: number of panels, irritation of acid reduced to give a mild acid taste (0.5 ppt): 0 | X: number of panels, acid taste reduced but piercing odor characteristic to aldehydes unpleasant (0.5 ppt): 0 | A: number of panels, acid taste/acid smell extreme and cause irritation (1 ppb): 0 | B: number of panels, acid taste/acid smell slightly strong and slightly cause irritation (1 ppb): 0 | C: number of panels, acid taste/acid smell slightly unpleasant (1 ppb): 2 | Flavor judgment: number of panels who judged acid taste/acid smell quality the highest (1 ppb): 0 | N: number of panels, irritation of acid reduced to give a mild acid taste (1 ppb): 4 | X: number of panels, acid taste reduced but piercing odor characteristic to aldehydes unpleasant (1 ppb): 4 | A: number of panels, acid taste/acid smell extreme and cause irritation (1 ppt): 0 | B: number of panels, acid taste/acid smell slightly strong and slightly cause irritation (1 ppt): 4 | C: number of panels, acid taste/acid smell slightly unpleasant (1 ppt): 5 | Flavor judgment: number of panels who judged acid taste/acid smell quality the highest (1 ppt): 0 | N: number of panels, irritation of acid reduced to give a mild acid taste (1 ppt): 1 | X: number of panels, acid taste reduced but piercing odor characteristic to aldehydes unpleasant (1 ppt): 0 | A: number of panels, acid taste/acid smell extreme and cause irritation (5 ppt): 0 | B: number of panels, acid taste/acid smell slightly strong and slightly cause irritation (5 ppt): 1 | C: number of panels, acid taste/acid smell slightly unpleasant (5 ppt): 3 | Flavor judgment: number of panels who judged acid taste/acid smell quality the highest (5 ppt): 4 | N: number of panels, irritation of acid reduced to give a mild acid taste (5 ppt): 6 | X: number of panels, acid taste reduced but piercing odor characteristic to aldehydes unpleasant (5 ppt): 0 | A: number of panels, acid taste/acid smell extreme and cause irritation (10 ppb): 0 | B: number of panels, acid taste/acid smell slightly strong and slightly cause irritation (10 ppb): 0 | C: number of panels, acid taste/acid smell slightly unpleasant (10 ppb): 2 | Flavor judgment: number of panels who judged acid taste/acid smell quality the highest (10 ppb): 0 | N: number of panels, irritation of acid reduced to give a mild acid taste (10 ppb): 4 | X: number of panels, acid taste reduced but piercing odor characteristic to aldehydes unpleasant (10 ppb): 4 | A: number of panels, acid taste/acid smell extreme and cause irritation (20 ppt): 0 | B: number of panels, acid taste/acid smell slightly strong and slightly cause irritation (20 ppt): 0 | C: number of panels, acid taste/acid smell slightly unpleasant (20 ppt): 2 | Flavor judgment: number of panels who judged acid taste/acid smell quality the highest (20 ppt): 3 | N: number of panels, irritation of acid reduced to give a mild acid taste (20 ppt): 8 | X: number of panels, acid taste reduced but piercing odor characteristic to aldehydes unpleasant (20 ppt): 0 | A: number of panels, acid taste/acid smell extreme and cause irritation (50 ppb): 0 | B: number of panels, acid taste/acid smell slightly strong and slightly cause irritation (50 ppb): 0 | C: number of panels, acid taste/acid smell slightly unpleasant (50 ppb): 0 | Flavor judgment: number of panels who judged acid taste/acid smell quality the highest (50 ppb): 0 | N: number of panels, irritation of acid reduced to give a mild acid taste (50 ppb): 2 | X: number of panels, acid taste reduced but piercing odor characteristic to aldehydes unpleasant (50 ppb): 8 | A: number of panels, acid taste/acid smell extreme and cause irritation (100 ppt): 0 | B: number of panels, acid taste/acid smell slightly strong and slightly cause irritation (100 ppt): 1 | C: number of panels, acid taste/acid smell slightly unpleasant (100 ppt): 2 | Flavor judgment: number of panels who judged acid taste/acid smell quality the highest (100 ppt): 3 | N: number of panels, irritation of acid reduced to give a mild acid taste (100 ppt): 7 | X: number of panels, acid taste reduced but piercing odor characteristic to aldehydes unpleasant (100 ppt): 0 | A: number of panels, acid taste/acid smell extreme and cause irritation (500 ppt): 0 | B: number of panels, acid taste/acid smell slightly strong and slightly cause irritation (500 ppt): 1 | C: number of panels, acid taste/acid smell slightly unpleasant (500 ppt): 3 | Flavor judgment: number of panels who judged acid taste/acid smell quality the highest (500 ppt): 0 | N: number of panels, irritation of acid reduced to give a mild acid taste (500 ppt): 4 | X: number of panels, acid taste reduced but piercing odor characteristic to aldehydes unpleasant (500 ppt): 2

CCCCC/C=C/C/C=C\CCC=O [(Z,E)-4,7-tridecadienal]
A: number of panels, acid taste/acid smell extreme and cause irritation (0.005 ppt): 10 | B: number of panels, acid taste/acid smell slightly strong and slightly cause irritation (0.005 ppt): 0 | C: number of panels, acid taste/acid smell slightly unpleasant (0.005 ppt): 0 | Flavor judgment: number of panels who judged acid taste/acid smell quality the highest (0.005 ppt): 0 | N: number of panels, irritation of acid reduced to give a mild acid taste (0.005 ppt): 0 | X: number of panels, acid taste reduced but piercing odor characteristic to aldehydes unpleasant (0.005 ppt): 0 | A: number of panels, acid taste/acid smell extreme and cause irritation (0.02 ppt): 10 | B: number of panels, acid taste/acid smell slightly strong and slightly cause irritation (0.02 ppt): 0 | C: number of panels, acid taste/acid smell slightly unpleasant (0.02 ppt): 0 | Flavor judgment: number of panels who judged acid taste/acid smell quality the highest (0.02 ppt): 0 | N: number of panels, irritation of acid reduced to give a mild acid taste (0.02 ppt): 0 | X: number of panels, acid taste reduced but piercing odor characteristic to aldehydes unpleasant (0.02 ppt): 0 | A: number of panels, acid taste/acid smell extreme and cause irritation (0.1 ppt): 10 | B: number of panels, acid taste/acid smell slightly strong and slightly cause irritation (0.1 ppt): 0 | C: number of panels, acid taste/acid smell slightly unpleasant (0.1 ppt): 0 | Flavor judgment: number of panels who judged acid taste/acid smell quality the highest (0.1 ppt): 0 | N: number of panels, irritation of acid reduced to give a mild acid taste (0.1 ppt): 0 | X: number of panels, acid taste reduced but piercing odor characteristic to aldehydes unpleasant (0.1 ppt): 0 | A: number of panels, acid taste/acid smell extreme and cause irritation (0.2 ppt): 9 | B: number of panels, acid taste/acid smell slightly strong and slightly cause irritation (0.2 ppt): 1 | C: number of panels, acid taste/acid smell slightly unpleasant (0.2 ppt): 0 | Flavor judgment: number of panels who judged acid taste/acid smell quality the highest (0.2 ppt): 0 | N: number of panels, irritation of acid reduced to give a mild acid taste (0.2 ppt): 0 | X: number of panels, acid taste reduced but piercing odor characteristic to aldehydes unpleasant (0.2 ppt): 0 | A: number of panels, acid taste/acid smell extreme and cause irritation (0.5 ppt): 5 | B: number of panels, acid taste/acid smell slightly strong and slightly cause irritation (0.5 ppt): 3 | C: number of panels, acid taste/acid smell slightly unpleasant (0.5 ppt): 2 | Flavor judgment: number of panels who judged acid taste/acid smell quality the highest (0.5 ppt): 0 | N: number of panels, irritation of acid reduced to give a mild acid taste (0.5 ppt): 0 | X: number of panels, acid taste reduced but piercing odor characteristic to aldehydes unpleasant (0.5 ppt): 0 | A: number of panels, acid taste/acid smell extreme and cause irritation (1 ppb): 0 | B: number of panels, acid taste/acid smell slightly strong and slightly cause irritation (1 ppb): 0 | C: number of panels, acid taste/acid smell slightly unpleasant (1 ppb): 2 | Flavor judgment: number of panels who judged acid taste/acid smell quality the highest (1 ppb): 0 | N: number of panels, irritation of acid reduced to give a mild acid taste (1 ppb): 4 | X: number of panels, acid taste reduced but piercing odor characteristic to aldehydes unpleasant (1 ppb): 4 | A: number of panels, acid taste/acid smell extreme and cause irritation (1 ppt): 0 | B: number of panels, acid taste/acid smell slightly strong and slightly cause irritation (1 ppt): 3 | C: number of panels, acid taste/acid smell slightly unpleasant (1 ppt): 6 | Flavor judgment: number of panels who judged acid taste/acid smell quality the highest (1 ppt): 0 | N: number of panels, irritation of acid reduced to give a mild acid taste (1 ppt): 1 | X: number of panels, acid taste reduced but piercing odor characteristic to aldehydes unpleasant (1 ppt): 0 | A: number of panels, acid taste/acid smell extreme and cause irritation (5 ppt): 0 | B: number of panels, acid taste/acid smell slightly strong and slightly cause irritation (5 ppt): 2 | C: number of panels, acid taste/acid smell slightly unpleasant (5 ppt): 2 | Flavor judgment: number of panels who judged acid taste/acid smell quality the highest (5 ppt): 4 | N: number of panels, irritation of acid reduced to give a mild acid taste (5 ppt): 6 | X: number of panels, acid taste reduced but piercing odor characteristic to aldehydes unpleasant (5 ppt): 0 | A: number of panels, acid taste/acid smell extreme and cause irritation (10 ppb): 0 | B: number of panels, acid taste/acid smell slightly strong and slightly cause irritation (10 ppb): 0 | C: number of panels, acid taste/acid smell slightly unpleasant (10 ppb): 2 | Flavor judgment: number of panels who judged acid taste/acid smell quality the highest (10 ppb): 0 | N: number of panels, irritation of acid reduced to give a mild acid taste (10 ppb): 3 | X: number of panels, acid taste reduced but piercing odor characteristic to aldehydes unpleasant (10 ppb): 5 | A: number of panels, acid taste/acid smell extreme and cause irritation (20 ppt): 0 | B: number of panels, acid taste/acid smell slightly strong and slightly cause irritation (20 ppt): 1 | C: number of panels, acid taste/acid smell slightly unpleasant (20 ppt): 2 | Flavor judgment: number of panels who judged acid taste/acid smell quality the highest (20 ppt): 3 | N: number of panels, irritation of acid reduced to give a mild acid taste (20 ppt): 7 | X: number of panels, acid taste reduced but piercing odor characteristic to aldehydes unpleasant (20 ppt): 0 | A: number of panels, acid taste/acid smell extreme and cause irritation (50 ppb): 0 | B: number of panels, acid taste/acid smell slightly strong and slightly cause irritation (50 ppb): 0 | C: number of panels, acid taste/acid smell slightly unpleasant (50 ppb): 0 | Flavor judgment: number of panels who judged acid taste/acid smell quality the highest (50 ppb): 0 | N: number of panels, irritation of acid reduced to give a mild acid taste (50 ppb): 2 | X: number of panels, acid taste reduced but piercing odor characteristic to aldehydes unpleasant (50 ppb): 8 | A: number of panels, acid taste/acid smell extreme and cause irritation (100 ppt): 0 | B: number of panels, acid taste/acid smell slightly strong and slightly cause irritation (100 ppt): 0 | C: number of panels, acid taste/acid smell slightly unpleasant (100 ppt): 2 | Flavor judgment: number of panels who judged acid taste/acid smell quality the highest (100 ppt): 3 | N: number of panels, irritation of acid reduced to give a mild acid taste (100 ppt): 8 | X: number of panels, acid taste reduced but piercing odor characteristic to aldehydes unpleasant (100 ppt): 0 | A: number of panels, acid taste/acid smell extreme and cause irritation (500 ppt): 0 | B: number of panels, acid taste/acid smell slightly strong and slightly cause irritation (500 ppt): 1 | C: number of panels, acid taste/acid smell slightly unpleasant (500 ppt): 3 | Flavor judgment: number of panels who judged acid taste/acid smell quality the highest (500 ppt): 0 | N: number of panels, irritation of acid reduced to give a mild acid taste (500 ppt): 4 | X: number of panels, acid taste reduced but piercing odor characteristic to aldehydes unpleasant (500 ppt): 2
